For 16 compounds, IC50 results are on record in US20060281764A1, “AMINOPYRIMIDINES AS KINASE MODULATORS” (priority 2005, published 2006).

T3 sequence (P10721 589-937 limits assumed): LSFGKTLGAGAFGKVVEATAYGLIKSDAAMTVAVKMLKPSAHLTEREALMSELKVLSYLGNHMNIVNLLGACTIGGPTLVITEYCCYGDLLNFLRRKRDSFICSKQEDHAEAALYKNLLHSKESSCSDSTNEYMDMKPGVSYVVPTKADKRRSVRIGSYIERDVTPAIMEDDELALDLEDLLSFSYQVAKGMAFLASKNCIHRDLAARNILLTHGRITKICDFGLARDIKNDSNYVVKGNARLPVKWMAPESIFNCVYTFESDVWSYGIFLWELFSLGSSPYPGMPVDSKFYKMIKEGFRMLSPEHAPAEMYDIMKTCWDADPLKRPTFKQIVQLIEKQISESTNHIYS

In one assay the target is T1, TrkB (Homo sapiens, UniProt Q16620).
T1 construct: purchased Upstate 14-507M
T1 sequence (Q16620 32-822): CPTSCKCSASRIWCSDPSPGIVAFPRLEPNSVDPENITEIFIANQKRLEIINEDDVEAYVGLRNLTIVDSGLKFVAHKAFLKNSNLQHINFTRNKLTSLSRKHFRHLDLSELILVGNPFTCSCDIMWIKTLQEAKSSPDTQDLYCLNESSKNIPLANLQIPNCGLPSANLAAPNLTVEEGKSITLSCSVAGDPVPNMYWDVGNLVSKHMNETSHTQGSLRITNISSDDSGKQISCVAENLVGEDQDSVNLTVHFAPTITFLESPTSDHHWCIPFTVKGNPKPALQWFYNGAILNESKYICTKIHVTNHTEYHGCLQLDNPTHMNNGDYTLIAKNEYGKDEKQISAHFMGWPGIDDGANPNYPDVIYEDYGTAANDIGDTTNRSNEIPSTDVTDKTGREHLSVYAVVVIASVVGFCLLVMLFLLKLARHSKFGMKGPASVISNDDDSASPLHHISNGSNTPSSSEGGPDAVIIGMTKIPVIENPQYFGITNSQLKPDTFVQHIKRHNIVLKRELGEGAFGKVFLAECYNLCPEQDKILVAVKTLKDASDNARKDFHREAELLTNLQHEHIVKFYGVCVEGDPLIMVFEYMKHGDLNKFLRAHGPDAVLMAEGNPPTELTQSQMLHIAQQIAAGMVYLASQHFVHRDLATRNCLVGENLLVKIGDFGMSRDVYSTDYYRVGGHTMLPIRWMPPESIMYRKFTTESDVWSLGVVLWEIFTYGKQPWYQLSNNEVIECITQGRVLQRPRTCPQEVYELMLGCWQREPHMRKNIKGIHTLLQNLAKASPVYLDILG
Briefly: Trk B Fluorescence Polarization Kinase Assay. It counts as biochemical. The note with it: FP assay, 150 uM ATP, 50 nM TrkB; uncertainty ±10%. On the procedure:
The compounds of the present invention are also specific inhibitors of TrkB. Selection of preferred compounds of Formula I for use as TrkB inhibitors was performed in the following manner. The TrkB assay utilized the fluorescein-labeled phosphopeptide and the anti-phosphotyrosine antibody included in the Panvera Phospho-Tyrosine Kinase Kit (Green) supplied by Invitrogen. When TrkB phosphorylated poly Glu4Tyr, the fluorescein-labeled phosphopeptide was displaced from the anti-phosphotyrosine antibody by the phosphorylated poly Glu4Tyr, thus decreasing the FP value. The TrkB kinase reaction was incubated at room temperature for 30 minutes under the following conditions: 50 nM TrkB (Upstate, catalog # 14-507M), 20 ug/mL poly Glu4Tyr, 150 uM ATP, 5 mM MgCl2, 1% compound in DMSO. The kinase reaction was stopped with the addition of EDTA. The fluorescein-labeled phosphopeptide and the anti-phosphotyrosine antibody were added and incubated for 30 minutes at room temperature. Data points were an average of triplicate samples. Inhibition and IC50 data analysis were done with GraphPad Prism using a non-linear regression fit with a multiparamater, sigmoidal dose-response (variable slope) equation.
Background: In fluorescence polarisation assays a small probe gives low polarisation when free and higher when bound to something large.
`CO/N=C/c1c(N)ncnc1N1CCC(OC(=O)Nc2ccc(OC(C)C)cc2)CC1` [Example 1, (4-Isopropoxy-phenyl)-carbamic acid 1-[6-amino-5-(methoxyimino-methyl)-pyrimidin-4-yl]-piperidin-4-yl ester] returned a 50% inhibitory concentration (IC50) of 29.4 µM.

In the case of `CCO/N=C/c1c(N)ncnc1N1CCC(OC(=O)Nc2ccc(OC(C)C)cc2)CC1` [Example 2, (4-Isopropoxy-phenyl)-carbamic acid 1-[6-amino-5-(ethoxyimino-methyl)-pyrimidin-4-yl]-piperidin-4-yl ester], the concentration for half-maximal inhibition (IC50) was above 42 µM.

`CC(C)Oc1ccc(NC(=O)OC2CCN(c3ncnc(N)c3/C=N/OCCN3CCOCC3)CC2)cc1` [Example 3, (4-Isopropoxy-phenyl)-carbamic acid 1-{6-amino-5-[(2-morpholin-4-yl-ethoxyimino)-methyl]-pyrimidin-4-yl}-piperidin-4-yl ester]: the IC50 was above 42 µM.

With `CC(C)Oc1ccc(NC(=O)OC2CCN(c3ncnc(N)c3/C=N/OCCCN(C)C)CC2)cc1` [Example 4, (4-Isopropoxy-phenyl)-carbamic acid 1-{6-amino-5-[(3-dimethylamino-propoxyimino)-methyl]-pyrimidin-4-yl}-piperidin-4-yl ester], the 50% inhibitory concentration (IC50) was above 42 µM.

With `CO/N=C/c1c(N)ncnc1N1CCC(OC(=O)Nc2ccc(C(C)C)cc2)CC1` [Example 5, (4-Isopropyl-phenyl)-carbamic acid 1-[6-amino-5-(methoxyimino-methyl)-pyrimidin-4-yl]-piperidin-4-yl ester], the IC50 stood at 23.9 µM.

Consider `CO/N=C/c1c(N)ncnc1N1CCC(CC(=O)Nc2ccc(C(C)C)cc2)C1` (stereo not shown) [Example 6, 2-{1-[6-Amino-5-(methoxyimino-methyl)-pyrimidin-4-yl]-pyrrolidin-3-yl}-N-(4-isopropyl-phenyl)-acetamide], for which the IC50 stood at 0.3 µM.

In turn, `CO/N=C/c1c(N)ncnc1N1CCC(CC(=O)Nc2ccc(C(C)C)cc2)CC1` [Example 7, 2-{1-[6-Amino-5-(methoxyimino-methyl)-pyrimidin-4-yl]-piperidin-4-yl}-N-(4-isopropyl-phenyl)-acetamide] showed an IC50 of 2.16 µM.

In turn, `CO/N=C/c1c(N)ncnc1N1CCC(NC(=O)Nc2ccc(OC(C)C)cc2)C1` (stereo not shown) [Example 8, 1-{1-[6-Amino-5-(methoxyimino-methyl)-pyrimidin-4-yl]-pyrrolidin-3-yl}-3-(4-isopropoxy-phenyl)-urea] displayed a 50% inhibitory concentration (IC50) of 14.2 µM.

With `CO/N=C/c1c(N)ncnc1N1CCC(NC(=O)Nc2ccc(N3CCCCC3)cc2)C1` (stereo not shown) [Example 9, 1-{1-[6-Amino-5-(methoxyimino-methyl)-pyrimidin-4-yl]-pyrrolidin-3-yl}-3-(4-piperidin-1-yl-phenyl)-urea], 11.9 µM corresponded to half-maximal inhibition (IC50).

Take `CO/N=C/c1c(N)ncnc1N1CCC(NC(=O)Nc2ccc(N3CCOCC3)cc2)C1` (stereo not shown) [Example 10, 1-{1-[6-Amino-5-(methoxyimino-methyl)-pyrimidin-4-yl]-pyrrolidin-3-yl}-3-(4-morpholin-4-yl-phenyl)-urea]: half-maximal inhibition (IC50) required 32.1 µM.

The compound `CO/N=C/c1c(N)ncnc1N1CCC(NC(=O)Nc2ccc(OC3CCC3)nc2)C1` (stereo not shown) [Example 11, 1-{1-[6-Amino-5-(methoxyimino-methyl)-pyrimidin-4-yl]-pyrrolidin-3-yl}-3-(6-cyclobutoxy-pyridin-3-yl)-urea] displayed an IC50 of 4.2 µM.

Turning to `CO/N=C/c1c(N)ncnc1N1CCC(NC(=O)Nc2ccc(OC(C)C)cc2)CC1` [Example 12, 1-{1-[6-Amino-5-(methoxyimino-methyl)-pyrimidin-4-yl]-piperidin-4-yl}-3-(4-isopropoxy-phenyl)-urea], the 50% inhibitory concentration (IC50) is 8.5 µM.

Regarding `CO/N=C/c1c(N)ncnc1N1CCC(NC(=O)Nc2ccc(N3CCCCC3)cc2)CC1` [Example 13, 1-{1-[6-Amino-5-(methoxyimino-methyl)-pyrimidin-4-yl]-piperidin-4-yl}-3-(4-piperidin-1-yl-phenyl)-urea], the half-inhibitory concentration (IC50) was 2.9 µM.

On to `CO/N=C/c1c(N)ncnc1N1CCC(NC(=O)Nc2ccc(N3CCOCC3)cc2)CC1` [Example 14, 1-{1-[6-Amino-5-(methoxyimino-methyl)-pyrimidin-4-yl]-piperidin-4-yl}-3-(4-morpholin-4-yl-phenyl)-urea], for which 15.6 µM corresponded to half-maximal inhibition (IC50).

For the compound `CO/N=C/c1c(N)ncnc1N1CCC(NC(=O)Nc2ccc(OC3CCC3)nc2)CC1` [Example 15, 1-{1-[6-Amino-5-(methoxyimino-methyl)-pyrimidin-4-yl]-piperidin-4-yl}-3-(6-cyclobutoxy-pyridin-3-yl)-urea], the IC50 was above 42 µM.

`CO/N=C/c1c(N)ncnc1N1CCC(NC(=O)Cc2ccc(C(C)C)cc2)CC1` [Example 16, N-{1-[6-Amino-5-(methoxyimino-methyl)-pyrimidin-4-yl]-piperidin-4-yl}-2-(4-isopropyl-phenyl)-acetamide] registered a half-maximal inhibitory concentration (IC50) of 7.4 µM.

A further assay addresses T2, FLT ligand-induced wild-type FLT3 phosphorylation in Baf3 FLT3 cells (Homo sapiens, UniProt P36888).
T2 construct: host or cells: Baf3 (murine B cell lymphoma line)
T2 sequence (P36888 27-993): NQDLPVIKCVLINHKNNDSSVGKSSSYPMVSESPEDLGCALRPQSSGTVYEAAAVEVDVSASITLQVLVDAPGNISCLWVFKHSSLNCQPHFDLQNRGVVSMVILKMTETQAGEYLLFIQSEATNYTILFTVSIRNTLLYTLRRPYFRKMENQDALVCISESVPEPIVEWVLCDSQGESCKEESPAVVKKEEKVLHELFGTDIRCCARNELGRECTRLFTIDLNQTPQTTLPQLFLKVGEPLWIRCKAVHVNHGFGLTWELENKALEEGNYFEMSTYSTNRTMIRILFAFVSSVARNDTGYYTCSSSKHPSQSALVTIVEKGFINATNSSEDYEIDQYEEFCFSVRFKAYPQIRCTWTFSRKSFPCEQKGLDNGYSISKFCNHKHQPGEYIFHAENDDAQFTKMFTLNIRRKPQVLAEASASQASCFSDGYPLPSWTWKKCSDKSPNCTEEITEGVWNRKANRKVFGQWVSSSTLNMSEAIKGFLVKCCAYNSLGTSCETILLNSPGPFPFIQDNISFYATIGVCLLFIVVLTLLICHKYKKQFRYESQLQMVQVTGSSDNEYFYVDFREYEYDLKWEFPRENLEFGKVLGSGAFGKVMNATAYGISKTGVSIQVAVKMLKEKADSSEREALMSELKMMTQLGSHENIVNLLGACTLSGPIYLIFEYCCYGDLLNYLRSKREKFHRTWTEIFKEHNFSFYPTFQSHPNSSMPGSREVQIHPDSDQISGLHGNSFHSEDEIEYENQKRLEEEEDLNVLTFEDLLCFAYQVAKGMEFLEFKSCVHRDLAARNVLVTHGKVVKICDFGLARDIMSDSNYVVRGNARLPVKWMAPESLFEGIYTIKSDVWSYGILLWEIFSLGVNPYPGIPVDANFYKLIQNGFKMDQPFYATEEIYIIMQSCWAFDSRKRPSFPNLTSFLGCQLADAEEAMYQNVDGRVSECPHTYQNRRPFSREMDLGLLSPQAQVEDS
Briefly: Cell-Based FLT3 Receptor Elisa (Baf3 FLT3 cells). Particulars: 1 hour compound incubation, 100 ng/mL Flt ligand, uncertainty ±20%. Here is the method: Specific cellular inhibition of FLT ligand-induced wild-type FLT3 phosphorylation was measured in the following manner: Baf3 FLT3 cells overexpressing the FLT3 receptor were obtained from Dr. Michael Heinrich (Oregon Health and Sciences University). The Baf3 FLT3 cell lines were created by stable transfection of parental Baf3 cells (a murine B cell lymphoma line dependent on the cytokine IL-3 for growth) with wild-type FLT3. Cells were selected for their ability to grow in the absence of IL-3 and in the presence of FLT3 ligand.
Baf3 cells were maintained in RPMI 1640 with 10% FBS, penn/strep and 10 ng/ml FLT ligand at 37° C., 5% CO2. To measure direct inhibition of the wild-type FLT3 receptor activity and phosphorylation a sandwich ELISA method was developed similar to those developed for other RTKs (3,4). 200 μL of Baf3FLT3 cells (1×10^6/mL) were plated in 96 well dishes in RPMI 1640 with 0.5% serum and 0.01 ng/mL IL-3 for 16 hours prior to 1 hour compound or DMSO vehicle incubation. Cells were treated with 100 ng/mL Flt ligand (R&D Systems Cat# 308-FK) for 10 min. at 37° C. Cells were pelleted, washed and lysed in 100 ul lysis buffer (50 mM Hepes, 150 mM NaCl, 10% Glycerol, 1% Triton —X-100, 10 mM NaF, 1 mM EDTA, 1.5 mM MgCl2, 10 mM NaPyrophosphate) supplemented with phosphatase (Sigma Cat# P2850) and protease inhibitors (Sigma Cat #P8340). […]
`CC(C)Oc1ccc(NC(=O)OC2CCN(c3ncnc(N)c3/C=N/OCCCN(C)C)CC2)cc1` [Example 4, (4-Isopropoxy-phenyl)-carbamic acid 1-{6-amino-5-[(3-dimethylamino-propoxyimino)-methyl]-pyrimidin-4-yl}-piperidin-4-yl ester] had a concentration for half-maximal inhibition (IC50) of 0.345 µM.

Another assay addresses T3, isolated kinase domain of the human c-kit receptor (Homo sapiens, UniProt P10721).
T3 construct: isolated kinase domain of the human c-kit receptor; purchased ProQinase lot SP005
Briefly: c-Kit Fluorescence Polarization Kinase Assay. The class given is biochemical. Particulars: FP assay, 50 uM ATP, 1 nM c-kit; uncertainty ±10%. Here is the method:
The compounds of the present invention are also specific inhibitors of c-Kit. Selection of preferred compounds of Formula I for use as c-Kit inhibitors was performed in the following manner using an in vitro kinase assay to measure inhibition of the isolated kinase domain of the human c-kit receptor in a fluorescence polarization (FP) protocol. The c-kit assay utilized the fluorescein-labeled phosphopeptide and the anti-phosphotyrosine antibody included in the Panvera Phospho-Tyrosine Kinase Kit (Green) supplied by Invitrogen. When c-kit phosphorylated the poly Glu4Tyr, the fluorescein-labeled phosphopeptide was displaced from the anti-phosphotyrosine antibody by the phosphorylated poly Glu4Tyr, thus decreasing the FP value. The c-kit kinase reaction was incubated at room temperature for 45 minutes under the following conditions: 1 nM c-kit (ProQinase, lot SP005), 100 ug/mL poly Glu4Tyr, 50 uM ATP, 5 mM MgCl2, 1 mM DTT, 0.01% Tween-20, 1% DMSO or compound in […], pH 7.5. The kinase reaction was stopped with the addition of EDTA. The fluorescein-labeled phosphopeptide and the anti-phosphotyrosine antibody were added and incubated for 30 minutes at room temperature and fluorescence polarization was read. Data points were an average of triplicate samples. […]
Compound `CCO/N=C/c1c(N)ncnc1N1CCC(OC(=O)Nc2ccc(OC(C)C)cc2)CC1` [Example 2, (4-Isopropoxy-phenyl)-carbamic acid 1-[6-amino-5-(ethoxyimino-methyl)-pyrimidin-4-yl]-piperidin-4-yl ester] displayed an IC50 of 0.38 µM.

Compound `CO/N=C/c1c(N)ncnc1N1CCC(CC(=O)Nc2ccc(C(C)C)cc2)C1` (stereo not shown) [Example 6, 2-{1-[6-Amino-5-(methoxyimino-methyl)-pyrimidin-4-yl]-pyrrolidin-3-yl}-N-(4-isopropyl-phenyl)-acetamide] gave a half-maximal inhibitory concentration (IC50) of 0.016 µM.

A word on the IC50: it is the point on the concentration scale where inhibition reaches its midpoint. A low value points to greater potency in that assay.
